System: rice seeds
Assay: rice seed germination in artificial paddy
Assay type: in vivo, Oryza sativa (Rice)
Settings: seeds incubated in 1 micromolar NR; water deprivation paddy, 37 seeds; only 1 seed germinated in that paddy's control
Method: Conditions of “water deprivation” in this specification refers to the administration of less water than required for a seed to germinate typically. In the experiments described below, seeds subjected to a condition of “water deprivation” were given 2 mL of water 3 times a week, as opposed to 5 mL. In the rice experiment, the seeds subjected to “water deprivation” were not given any water after their planting in the artificial paddy. 5 mL of the solutions of the 3 compounds or combinations was placed in a small size weigh boats, along with water as the control. Up to 50 seeds were placed in the weigh boats. Incubation periods ranged from 18-24 hours at room temperature (recorded range of 55-65° F.). The seeds were then either placed in a germination chamber or planted in potting soil, as described below. For the rice plants, an artificial paddy field was built using two plastic bins filled with soil, and filled with water to a depth of 4 inches. A divider comprising of sticks was placed to delineate the experimental conditions comparing water soaked seeds or NR soaked seeds. In one paddy, water was replenished until germination was observed; the other received no added water. The bins were left outside for a total of 6 weeks; the daily temperatures ranged between 50 F to 95 F, and no rainfall was recorded during the experimental period. […]

NC(=O)c1ccc[n+]([C@@H]2O[C@H](CO)[C@@H](O)[C@H]2O)c1 [NR, Nicotinamide riboside]
seeds germinated: 32%

Reference: patent US20200107549A1, “Enhancement of seed germination and plant growth under conditions of stress with pterostilbene, ellagic acid, nicotinamide riboside, and their combinations” (priority 2018, published 2020)
